Experiments:
Format in all cases: cell-based
[1] = test system: HL-60 cells (human acute myeloid leukemia cells); assay: Proliferation assay (alamarBlue) with HL-60 cells
From the text: (§1) The antiproliferative activities of compounds falling under formula (Ia), (Ib) and (Ic), respectively, were investigated on cells or cell lines originating from a disorder of the haematopoietic system, including the myeloid cell compartment and the lymphoid cell compartment (T-cells and B-cells), the neuroendocrine system, the cervix, the breast, the ovaries, the lung, the gastrointestinal tract, and the mucosal epithelium, as well as from the skin epithelium and from the muscle. To this end, HL-60 cells, NB-4 cells, HH cells, RPMI-8402 cells, TANOUE cells, TT cells, HeLa cells, MDA-MB-231 cells, FU-OV-1 cells, LOU-NH91 cells, 23132/87 cells, CAL-27 cells, BHY cells, SCC-25 cells, A-431 cells, human primary epidermal keratinocytes (HPEK), and C2C12 cells were seeded into 96-well plates suitable for fluorescence assays (CORNING #3598) at following initial cell numbers: 1000 cells per well for HL-60; 1000 cells per well for NB-4; 5000 cells per well for HH; 5000 cells per well for RPMI-8402; 1500 cells per well for TANOUE; 9000 cells per well for TT; 2000 cells per well for HeLa; 3000 cells per well for MDA-MB-231; 3000 cells per well for FU-OV-1; 4000 cells per well for LOU-NH91; 2000 cells per well for 23132/87; 2000 cells per well for CAL-27; 1500 cells per well for BHY; 1500 cells per well for SCC-25; 700 cells per well for A-431; 1000 cells per well for HPEK; 500 cells per well for C2C12. The cells were treated with compounds at indicated final concentrations (diluted from the 1000× stock-solutions in DMSO to a final DMSO concentration of 0.1% v/v in H2O (Water For Injection, WFI, Fisherscientific #10378939)) or with the empty carrier DMSO at 0.1% v/v as control for 5 days. At day 5 after starting the treatments the cells were subjected to the alamarBlue® Proliferation Assay (Bio-Rad Serotec GmbH, BUF012B) according to the protocol of the manufacturer. The readout was taken with a multi-well plate-reader in the fluorescence mode with applying a filter for excitation at 560 nm (band width 10 nm) and for emission at 590 nm (band width 10 nm). Control treatments for growth inhibition with commercial compounds such as Methotrexate (MTREX) and Resveratrol (RES) were included on every plate. Some of the test compounds of the present invention were obtained and applied as their salts. According cases are indicated in the column “Specification” in Table 55 to Table 92 and by their sum formula in Table 93.
(§2) The assays were performed in duplicate or more replicates of independent single experiments each containing a six-fold replicate for every condition. For every individual plate, the measured fluorescence intensity values of the conditions with compound treatment were normalized against the corresponding equally weighted arithmetic mean of the fluorescence intensity values of the six DMSO treated control wells in order to obtain the relative values to a baseline level of 1.0.
(§3) Two independent outlier analyses were performed according to the methods by Peirce and Chauvenet (Ross, Journal of Engineering Technology 2003, 1-12). Outliers confirmed by at least one of the methods were excluded from the calculations but not more than one value out of six per compound within a single experiment. The weighted arithmetic mean (here abbreviated as AVEw) for each compound was calculated from the normalized values over all independent replicates of the single experiments comprising the six replicates each. The corresponding standard deviation for the weighted arithmetic mean was calculated according to the method described by Bronstein et al. (Bronstein, Semendjajew, Musiol, Müihlig, Taschenbuch der Mathematik, 5th edition 2001 (German), publisher: Verlag Harri Deutsch, Frankfurt am Main and Thun) and was combined with the Gauß' error propagation associated with the performed calculation for the normalization. The resulting standard deviation is herein referred to as “combined standard deviation”. […]

[2] = test system: NB-4 cells (human acute promyelocytic leukemia cells); assay: Proliferation assay (alamarBlue) with NB-4 cells
From the text: as §1, §2, §3

[3] = test system: HH cells (human cutaneous T-cell lymphoma cells); assay: Proliferation assay (alamarBlue) with HH cells
From the text: as §1, §2, §3

[4] = test system: RPMI-8402 cells (human T cell acute lymphoblastic leukemia cells); assay: Proliferation assay (alamarBlue) with RPMI-8402 cells
From the text: as §1, §2, §3

[5] = test system: TANOUE cells (human B cell leukemia cells); assay: Proliferation assay (alamarBlue) with TANOUE cells
From the text: as §1, §2, §3

[6] = test system: TT cells (human medullary thyroid carcinoma cells); assay: Proliferation assay (alamarBlue) with TT cells
From the text: as §1, §2, §3

[7] = test system: HeLa cells (human cervical adenocarcinoma cells); assay: Proliferation assay (alamarBlue) with HeLa cells
From the text: as §1, §2, §3

[8] = test system: FU-OV-1 cells (human ovarian carcinoma cells); assay: Proliferation assay (alamarBlue) with FU-OV-1 cells
From the text: as §1, §2, §3

[9] = test system: LOU-NH91 cells (human lung squamous cell carcinoma cells); assay: Proliferation assay (alamarBlue) with LOU-NH91 cells; conditions: for Activity Range (weighted arithmetic mean AVEw of normalized fluorescence intensity, relative to DMSO basis level 1.0): 20 μM; for Activity Range (weighted arithmetic mean of normalized fluorescence intensity, relative to DMSO basis level 1.0): control at 40 μM
From the text: as §1, §2, §3

[10] = test system: 23132/87 cells (human gastric adenocarcinoma cells); assay: Proliferation assay (alamarBlue) with 23132/87 cells; conditions: for Activity Range (weighted arithmetic mean AVEw of normalized fluorescence intensity, relative to DMSO basis level 1.0): 20 μM; for Activity Range (weighted arithmetic mean of normalized fluorescence intensity, relative to DMSO basis level 1.0): control at 40 μM
From the text: as §1, §2, §3

[11] = test system: SCC-25 cells (human tongue squamous cell carcinoma cells); assay: Proliferation assay (alamarBlue) with SCC-25 cells; conditions: for Activity Range (weighted arithmetic mean AVEw of normalized fluorescence intensity, relative to DMSO basis level 1.0): 20 μM; for Activity Range (weighted arithmetic mean of normalized fluorescence intensity, relative to DMSO basis level 1.0): control at 40 μM
From the text: as §1, §2, §3

[12] = test system: A-431 cells (human epidermoid squamous cell carcinoma cells); assay: Proliferation assay (alamarBlue) with A-431 cells; conditions: for Activity Range (weighted arithmetic mean AVEw of normalized fluorescence intensity, relative to DMSO basis level 1.0): 20 μM; for Activity Range (weighted arithmetic mean of normalized fluorescence intensity, relative to DMSO basis level 1.0): control at 40 μM
From the text: as §1, §2, §3

Oc1ccc(C=Cc2cc(O)cc(O)c2)cc1 [RES, Resveratrol]
Activity Range: weighted arithmetic mean (AVEw) of normalized fluorescence intensity, proliferation assay with HL-60 cells ([1]; 20 μM, relative to DMSO basis level 1.0, Table 55 (novel compounds)): 0.4 ± 0.1 | Activity Range: weighted arithmetic mean (AVEw) of normalized fluorescence intensity, proliferation assay with HL-60 cells ([1]; 20 μM, relative to DMSO basis level 1.0, Table 56 (compounds disclosed in PCT/EP2018/054686)): 0.4 ± 0.1 | Activity Range: weighted arithmetic mean (AVEw) of normalized fluorescence intensity, proliferation assay with HL-60 cells ([1]; control at 40 μM, relative to DMSO basis level 1.0, Table 55): 0.2 ± 0.1 | Activity Range: weighted arithmetic mean (AVEw) of normalized fluorescence intensity, proliferation assay with HL-60 cells ([1]; control at 40 μM, relative to DMSO basis level 1.0, Table 56): 0.2 ± 0.1 | Activity Range: weighted arithmetic mean (AVEw) of normalized fluorescence intensity, proliferation assay with NB-4 cells ([2]; 20 μM, relative to DMSO basis level 1.0, Table 57 (novel compounds)): 0.1 ± 0.0 | Activity Range: weighted arithmetic mean (AVEw) of normalized fluorescence intensity, proliferation assay with NB-4 cells ([2]; 20 μM, relative to DMSO basis level 1.0, Table 58 (compounds disclosed in PCT/EP2018/054686)): 0.1 ± 0.0 | Activity Range: weighted arithmetic mean (AVEw) of normalized fluorescence intensity, proliferation assay with NB-4 cells ([2]; control at 40 μM, relative to DMSO basis level 1.0, Table 57): 0.0 ± 0.0 | Activity Range: weighted arithmetic mean (AVEw) of normalized fluorescence intensity, proliferation assay with NB-4 cells ([2]; control at 40 μM, relative to DMSO basis level 1.0, Table 58): 0.0 ± 0.0 | Activity Range: weighted arithmetic mean (AVEw) of normalized fluorescence intensity, proliferation assay with HH cells ([3]; 20 μM, relative to DMSO basis level 1.0, Table 59 (novel compounds)): 0.6 ± 0.1 | Activity Range: weighted arithmetic mean (AVEw) of normalized fluorescence intensity, proliferation assay with HH cells ([3]; control at 40 μM, relative to DMSO basis level 1.0, Table 59): 0.4 ± 0.1 | Activity Range: weighted arithmetic mean (AVEw) of normalized fluorescence intensity, proliferation assay with HH cells ([3]; control at 40 μM, relative to DMSO basis level 1.0, Table 60): 0.4 ± 0.1 | Activity Range: weighted arithmetic mean (AVEw) of normalized fluorescence intensity, proliferation assay with RPMI-8402 cells ([4]; 20 μM, relative to DMSO basis level 1.0, Table 61 (novel compounds)): 0.6 ± 0.0 | Activity Range: weighted arithmetic mean (AVEw) of normalized fluorescence intensity, proliferation assay with RPMI-8402 cells ([4]; 20 μM, relative to DMSO basis level 1.0, Table 62 (compounds disclosed in PCT/EP2018/054686)): 0.6 ± 0.0 | Activity Range: weighted arithmetic mean (AVEw) of normalized fluorescence intensity, proliferation assay with RPMI-8402 cells ([4]; control at 40 μM, relative to DMSO basis level 1.0, Table 61): 0.1 ± 0.0 | Activity Range: weighted arithmetic mean (AVEw) of normalized fluorescence intensity, proliferation assay with RPMI-8402 cells ([4]; control at 40 μM, relative to DMSO basis level 1.0, Table 62): 0.1 ± 0.0 | activity at 20 µM ([5]; Homo sapiens, B-cell, compound at 20 μM, Table 63 (novel compounds), read-out: Activity Range: weighted arithmetic mean (AVEw) of normalized fluorescence intensity relative to DMSO basis level 1.0): 10% | activity at 40 µM ([5]; Homo sapiens, B-cell, control at 40 μM, Table 63, read-out: Activity Range: weighted arithmetic mean (AVEw) of normalized fluorescence intensity relative to DMSO basis level 1.0): 0% | Activity Range: weighted arithmetic mean (AVEw) of normalized fluorescence intensity relative to DMSO basis level 1.0 ([5]; compound at 20 μM, Table 64 (compounds of PCT/EP2018/054686)): 0.1 ± 0.0 | Activity Range: weighted arithmetic mean (AVEw) of normalized fluorescence intensity relative to DMSO basis level 1.0 ([5]; control at 40 μM, Table 64): 0.0 ± 0.0 | Activity Range: weighted arithmetic mean (AVEw) of normalized fluorescence intensity relative to DMSO basis level 1.0 ([6]; compound at 20 μM, Table 65 (novel compounds)): 0.9 ± 0.0 | Activity Range: weighted arithmetic mean (AVEw) of normalized fluorescence intensity relative to DMSO basis level 1.0 ([6]; compound at 20 μM, Table 66 (compounds of PCT/EP2018/054686)): 0.9 ± 0.0 | Activity Range: weighted arithmetic mean (AVEw) of normalized fluorescence intensity relative to DMSO basis level 1.0 ([6]; control at 40 μM, Table 65): 0.7 ± 0.0 | Activity Range: weighted arithmetic mean (AVEw) of normalized fluorescence intensity relative to DMSO basis level 1.0 ([6]; control at 40 μM, Table 66): 0.7 ± 0.0 | Activity Range: weighted arithmetic mean (AVEw) of normalized fluorescence intensity relative to DMSO basis level 1.0 ([7]; compound at 20 μM, Table 67 (novel compounds)): 0.9 ± 0.0 | Activity Range: weighted arithmetic mean (AVEw) of normalized fluorescence intensity relative to DMSO basis level 1.0 ([7]; compound at 20 μM, Table 68 (compounds of PCT/EP2018/054686)): 0.9 ± 0.0 | Activity Range: weighted arithmetic mean (AVEw) of normalized fluorescence intensity relative to DMSO basis level 1.0 ([7]; control at 40 μM, Table 67): 0.4 ± 0.1 | Activity Range: weighted arithmetic mean (AVEw) of normalized fluorescence intensity relative to DMSO basis level 1.0 ([7]; control at 40 μM, Table 68): 0.4 ± 0.1 | Activity Range: weighted arithmetic mean (AVEw) of normalized fluorescence intensity relative to DMSO basis level 1.0 ([8]; compound at 20 μM, Table 71 (novel compounds)): 0.7 ± 0.0 | Activity Range: weighted arithmetic mean (AVEw) of normalized fluorescence intensity relative to DMSO basis level 1.0 ([8]; compound at 20 μM, Table 72 (compounds of PCT/EP2018/054686)): 0.7 ± 0.0 | Activity Range: weighted arithmetic mean (AVEw) of normalized fluorescence intensity relative to DMSO basis level 1.0 ([8]; control at 40 μM, Table 71): 0.4 ± 0.0 | Activity Range: weighted arithmetic mean (AVEw) of normalized fluorescence intensity relative to DMSO basis level 1.0 ([8]; control at 40 μM, Table 72): 0.4 ± 0.0 | Activity Range (weighted arithmetic mean AVEw of normalized fluorescence intensity, relative to DMSO basis level 1.0) ([9]; Table 73 (novel compounds)): 0.9 ± 0.1 | Activity Range (weighted arithmetic mean AVEw of normalized fluorescence intensity, relative to DMSO basis level 1.0) ([9]; Table 74 (compounds disclosed in PCT/EP2018/054686)): 0.9 ± 0.1 | Activity Range (weighted arithmetic mean of normalized fluorescence intensity, relative to DMSO basis level 1.0) ([9]; Table 73): 0.7 ± 0.0 | Activity Range (weighted arithmetic mean of normalized fluorescence intensity, relative to DMSO basis level 1.0) ([9]; Table 74): 0.7 ± 0.0 | Activity Range (weighted arithmetic mean AVEw of normalized fluorescence intensity, relative to DMSO basis level 1.0) ([10]; Table 75 (novel compounds)): 0.5 ± 0.1 | Activity Range (weighted arithmetic mean AVEw of normalized fluorescence intensity, relative to DMSO basis level 1.0) ([10]; Table 76 (compounds disclosed in PCT/EP2018/054686)): 0.5 ± 0.1 | Activity Range (weighted arithmetic mean of normalized fluorescence intensity, relative to DMSO basis level 1.0) ([10]; Table 75): 0.2 ± 0.0 | Activity Range (weighted arithmetic mean of normalized fluorescence intensity, relative to DMSO basis level 1.0) ([10]; Table 76): 0.2 ± 0.0 | Activity Range (weighted arithmetic mean AVEw of normalized fluorescence intensity, relative to DMSO basis level 1.0) ([11]; Table 82 (novel compounds)): 0.4 ± 0.1 | Activity Range (weighted arithmetic mean AVEw of normalized fluorescence intensity, relative to DMSO basis level 1.0) ([11]; Table 83 (compounds disclosed in PCT/EP2018/054686)): 0.4 ± 0.1 | Activity Range (weighted arithmetic mean of normalized fluorescence intensity, relative to DMSO basis level 1.0) ([11]; Table 82): 0.1 ± 0.0 | Activity Range (weighted arithmetic mean of normalized fluorescence intensity, relative to DMSO basis level 1.0) ([11]; Table 83): 0.1 ± 0.0 | Activity Range (weighted arithmetic mean AVEw of normalized fluorescence intensity, relative to DMSO basis level 1.0) ([12]; Table 84 (novel compounds)): 0.6 ± 0.0 | Activity Range (weighted arithmetic mean AVEw of normalized fluorescence intensity, relative to DMSO basis level 1.0) ([12]; Table 85 (compounds disclosed in PCT/EP2018/054686)): 0.6 ± 0.0 | Activity Range (weighted arithmetic mean of normalized fluorescence intensity, relative to DMSO basis level 1.0) ([12]; Table 84): 0.2 ± 0.0 | Activity Range (weighted arithmetic mean of normalized fluorescence intensity, relative to DMSO basis level 1.0) ([12]; Table 85): 0.2 ± 0.0
